# Source: US10752626B2, “Iso-citrate dehydrogenase (IDH) inhibitor” (SHANGHAI METON PHARMACEUTICAL CO., LTD, priority 2016, dated 2020)
# Test: in vitro
# Conditions: microsomes; for % remaining #1 / % remaining #2 / Ln (% remaining) #1 / Ln (% remaining) #2 / Mean Ln(% remaining): 1 μM, pH 7.4; for microsomal CLint at 1 μM: pH 7.4, CLint; for half-life at 1 μM: pH 7.4, T1/2
# Description: The liver microsomes of mouse, rat, dog, monkey and human were purchased from Corning Inc., and were stored at −60° C. prior to use. The acetonitrile and NADPH were purchased from Honeywell International Inc. (New Jersey, U.S.) and Roche Inc. (Basel, Swiss).
# Reactions were initiated by adding NADPH to a final concentration of 1 mM. The final volume of each reaction mixture was 0.2 ml, and all reactions were performed in duplicate. At each set time point (0, 5, 15, 30 and 60 min), a small aliquot (e.g., 20 μl) was transferred from the reaction system into ice-cold internal standard (IS) containing acetonitrile to quench the reaction and to precipitate the protein. After vortex and centrifuge at 3700 rpm for 10 min, the supernatant was injected into LC-MS/MS for analysis.
# In vitro microsomal clearance was estimated based on determination of elimination half-life (T1/2) of compounds disappearance from their initial concentrations. Peak area ratios of each compound (test or control) to IS was calculated. Ln (% Control) versus Incubation Time (min) curve was plotted, and the slope of a linear fitting line was calculated. Drug elimination rate constant k (min^−1), T1/2 (min), and in vitro intrinsic clearance CLint (mL·min^−1·mg^−1 proteins) was calculated according to the following equations: k=−slope T1/2=0.693/k CLint=k/Cprotein where Cprotein (mg·mL^−1) is the microsomal protein concentration in the incubation system. Test 3: Metabolic Stability Assay in Mouse Plasma
# In this study, the metabolic stability of the compounds was assessed in mouse, rat, dog, monkey and human liver microsome according to the method disclosed in Test 2 of the Biological evaluation section.
structure (smiles),measurement,setting,value
"CCN1Cc2c(ccnc2N[C@@H](C)c2ccc(Oc3ccc(C)cc3)cc2)C1=O [Compound 16, (S)-2-ethyl-4-(1-(4-(p-tolyloxy)phenyl)ethylamino)-2,3-dihydro-1H-pyrrolo [3,4-c]pyridin-1-one]",% remaining #1,"dog, 0 h",100%
same,% remaining #2,"dog, 0 h",100%
same,Ln (% remaining) #1,"dog, 0 h",4.61
same,Ln (% remaining) #2,"dog, 0 h",4.61
same,Mean Ln(% remaining),"dog, 0 h",4.61
same,% remaining #1,"dog, 5 min",105%
same,% remaining #2,"dog, 5 min",106%
same,Ln (% remaining) #1,"dog, 5 min",4.65
same,Ln (% remaining) #2,"dog, 5 min",4.66
same,Mean Ln(% remaining),"dog, 5 min",4.66
same,% remaining #1,"dog, 0.25 h",94.6%
same,% remaining #2,"dog, 0.25 h",85.4%
same,Ln (% remaining) #1,"dog, 0.25 h",4.55
same,Ln (% remaining) #2,"dog, 0.25 h",4.45
same,Mean Ln(% remaining),"dog, 0.25 h",4.50
same,% remaining #1,"dog, 0.5 h",76.5%
same,% remaining #2,"dog, 0.5 h",76.0%
same,Ln (% remaining) #1,"dog, 0.5 h",4.34
same,Ln (% remaining) #2,"dog, 0.5 h",4.33
same,Mean Ln(% remaining),"dog, 0.5 h",4.33
same,% remaining #1,"dog, 1 h",52.8%
same,% remaining #2,"dog, 1 h",48.8%
same,Ln (% remaining) #1,"dog, 1 h",3.97
same,Ln (% remaining) #2,"dog, 1 h",3.89
same,Mean Ln(% remaining),"dog, 1 h",3.93
same,microsomal CLint at 1 μM,dog,23 µL/min/mg
same,half-life at 1 μM,dog,60.3 min
same,stability in human liver microsome,human,medium stability
same,% remaining #1,"human, 0 h",100%
same,% remaining #2,"human, 0 h",100%
same,Ln (% remaining) #1,"human, 0 h",4.61
same,Ln (% remaining) #2,"human, 0 h",4.61
same,Mean Ln(% remaining),"human, 0 h",4.61
same,% remaining #1,"human, 5 min",87.1%
same,% remaining #2,"human, 5 min",90.5%
same,Ln (% remaining) #1,"human, 5 min",4.47
same,Ln (% remaining) #2,"human, 5 min",4.51
same,Mean Ln(% remaining),"human, 5 min",4.49
same,% remaining #1,"human, 0.25 h",65.7%
same,% remaining #2,"human, 0.25 h",69.0%
same,Ln (% remaining) #1,"human, 0.25 h",4.18
same,Ln (% remaining) #2,"human, 0.25 h",4.23
same,Mean Ln(% remaining),"human, 0.25 h",4.21
same,% remaining #1,"human, 0.5 h",51.7%
same,% remaining #2,"human, 0.5 h",50.5%
same,Ln (% remaining) #1,"human, 0.5 h",3.95
same,Ln (% remaining) #2,"human, 0.5 h",3.92
same,Mean Ln(% remaining),"human, 0.5 h",3.93
same,% remaining #1,"human, 1 h",26.2%
same,% remaining #2,"human, 1 h",25.4%
same,Ln (% remaining) #1,"human, 1 h",3.27
same,Ln (% remaining) #2,"human, 1 h",3.23
same,Mean Ln(% remaining),"human, 1 h",3.25
same,microsomal CLint at 1 μM,human,43.6 µL/min/mg
same,half-life at 1 μM,human,31.8 min
same,% remaining #1,"monkey, 0 h",100%
same,% remaining #2,"monkey, 0 h",100%
same,Ln (% remaining) #1,"monkey, 0 h",4.61
same,Ln (% remaining) #2,"monkey, 0 h",4.61
same,Mean Ln(% remaining),"monkey, 0 h",4.61
same,% remaining #1,"monkey, 5 min",66.1%
same,% remaining #2,"monkey, 5 min",72.7%
same,Ln (% remaining) #1,"monkey, 5 min",4.19
same,Ln (% remaining) #2,"monkey, 5 min",4.29
same,Mean Ln(% remaining),"monkey, 5 min",4.24
same,% remaining #1,"monkey, 0.25 h",32.5%
same,% remaining #2,"monkey, 0.25 h",35.4%
same,Ln (% remaining) #1,"monkey, 0.25 h",3.48
same,Ln (% remaining) #2,"monkey, 0.25 h",3.57
same,Mean Ln(% remaining),"monkey, 0.25 h",3.52
same,% remaining #1,"monkey, 0.5 h",12.5%
same,% remaining #2,"monkey, 0.5 h",12.2%
same,Ln (% remaining) #1,"monkey, 0.5 h",2.53
same,Ln (% remaining) #2,"monkey, 0.5 h",2.51
same,Mean Ln(% remaining),"monkey, 0.5 h",2.52
same,% remaining #1,"monkey, 1 h",2.13%
same,% remaining #2,"monkey, 1 h",2.06%
same,Ln (% remaining) #1,"monkey, 1 h",0.757
same,Ln (% remaining) #2,"monkey, 1 h",0.725
same,Mean Ln(% remaining),"monkey, 1 h",0.741
same,microsomal CLint at 1 μM,monkey,127 µL/min/mg
same,half-life at 1 μM,monkey,10.9 min
same,% remaining #1,"mouse, 0 h",100%
same,% remaining #2,"mouse, 0 h",100%
same,Ln (% remaining) #1,"mouse, 0 h",4.61
same,Ln (% remaining) #2,"mouse, 0 h",4.61
same,Mean Ln(% remaining),"mouse, 0 h",4.61
same,% remaining #1,"mouse, 5 min",88.1%
same,% remaining #2,"mouse, 5 min",94.2%
same,Ln (% remaining) #1,"mouse, 5 min",4.48
same,Ln (% remaining) #2,"mouse, 5 min",4.55
same,Mean Ln(% remaining),"mouse, 5 min",4.51
same,% remaining #1,"mouse, 0.25 h",72.7%
same,% remaining #2,"mouse, 0.25 h",80.8%
same,Ln (% remaining) #1,"mouse, 0.25 h",4.29
same,Ln (% remaining) #2,"mouse, 0.25 h",4.39
same,Mean Ln(% remaining),"mouse, 0.25 h",4.34
same,% remaining #1,"mouse, 0.5 h",31.0%
same,% remaining #2,"mouse, 0.5 h",43.8%
same,Ln (% remaining) #1,"mouse, 0.5 h",3.43
same,Ln (% remaining) #2,"mouse, 0.5 h",3.78
same,Mean Ln(% remaining),"mouse, 0.5 h",3.61
same,% remaining #1,"mouse, 1 h",10.6%
same,% remaining #2,"mouse, 1 h",12.0%
same,Ln (% remaining) #1,"mouse, 1 h",2.36
same,Ln (% remaining) #2,"mouse, 1 h",2.48
same,Mean Ln(% remaining),"mouse, 1 h",2.42
same,microsomal CLint at 1 μM,mouse,77.4 µL/min/mg
same,half-life at 1 μM,mouse,17.9 min
same,% remaining #1,"rat, 0 h",100%
same,% remaining #2,"rat, 0 h",100%
same,Ln (% remaining) #1,"rat, 0 h",4.61
same,Ln (% remaining) #2,"rat, 0 h",4.61
same,Mean Ln(% remaining),"rat, 0 h",4.61
same,% remaining #1,"rat, 5 min",90.0%
same,% remaining #2,"rat, 5 min",111%
same,Ln (% remaining) #1,"rat, 5 min",4.50
same,Ln (% remaining) #2,"rat, 5 min",4.71
same,Mean Ln(% remaining),"rat, 5 min",4.61
same,% remaining #1,"rat, 0.25 h",59.4%
same,% remaining #2,"rat, 0.25 h",92.3%
same,Ln (% remaining) #1,"rat, 0.25 h",4.09
same,Ln (% remaining) #2,"rat, 0.25 h",4.53
same,Mean Ln(% remaining),"rat, 0.25 h",4.31
same,% remaining #1,"rat, 0.5 h",35.8%
same,% remaining #2,"rat, 0.5 h",62.9%
same,Ln (% remaining) #1,"rat, 0.5 h",3.58
same,Ln (% remaining) #2,"rat, 0.5 h",4.14
same,Mean Ln(% remaining),"rat, 0.5 h",3.86
same,% remaining #1,"rat, 1 h",14.0%
same,% remaining #2,"rat, 1 h",24.1%
same,Ln (% remaining) #1,"rat, 1 h",2.64
same,Ln (% remaining) #2,"rat, 1 h",3.18
same,Mean Ln(% remaining),"rat, 1 h",2.91
same,microsomal CLint at 1 μM,rat,66.5 µL/min/mg
same,half-life at 1 μM,rat,20.8 min
